Reference: PubChem BioAssay (NCI)
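These data come from cells grown in 96-well plates and exposed to compound for 48 hours at five concentrations. At the TGI there is no net growth.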

Assays:
Test in all cases: NCI-60 cell line screen, 48 h
[1] = system: 786-0 renal
[2] = system: A498 renal
[3] = system: A549 NSCLC
[4] = system: ACHN renal
[5] = system: BT-549 breast
[6] = system: CAKI-1 renal
[7] = system: CCRF-CEM leukemia
[8] = system: COLO 205 colon
[9] = system: DU-145 prostate
[10] = system: EKVX NSCLC
[11] = system: HCC-2998 colon
[12] = system: HCT-116 colon
[13] = system: HCT-15 colon
[14] = system: HL-60(TB) leukemia
[15] = system: HOP-62 NSCLC
[16] = system: HS 578T breast
[17] = system: HT29 colon
[18] = system: IGROV1 ovarian
[19] = system: K-562 leukemia
[20] = system: KM12 colon
[21] = system: LOX IMVI melanoma
[22] = system: M14 melanoma
[23] = system: MALME-3M melanoma
[24] = system: MCF7 breast
[25] = system: MDA-MB-231 breast
[26] = system: MDA-MB-435
[27] = system: MDA-N
[28] = system: MOLT-4 leukemia
[29] = system: NCI-H226 lung
[30] = system: NCI-H23 lung
[31] = system: NCI-H460 lung
[32] = system: NCI/ADR-RES ovarian
[33] = system: OVCAR-3 ovarian
[34] = system: OVCAR-4 ovarian
[35] = system: OVCAR-5 ovarian
[36] = system: OVCAR-8 ovarian
[37] = system: PC-3 prostate
[38] = system: RPMI-8226 leukemia
[39] = system: RXF 393 renal
[40] = system: SF-268 CNS
[41] = system: SF-295 CNS
[42] = system: SF-539 CNS
[43] = system: SK-MEL-2 melanoma
[44] = system: SK-MEL-28 melanoma
[45] = system: SK-MEL-5 melanoma
[46] = system: SK-OV-3 ovarian
[47] = system: SN12C renal
[48] = system: SNB-19 CNS
[49] = system: SR leukemia
[50] = system: SW-620 colon
[51] = system: T-47D breast
[52] = system: TK-10 renal
[53] = system: U251 CNS
[54] = system: UACC-257 melanoma
[55] = system: UACC-62 melanoma
[56] = system: UO-31 renal
[57] = system: HOP-92 NSCLC
[58] = system: NCI-H522 lung
[59] = system: SNB-75 CNS

[N-]=[N+]=CC(=O)C1CCN(c2ccccc2)C1=O (stereo not drawn)
TGI [1]: > 10 µM | TGI [2]: > 10 µM | TGI [3]: > 10 µM | TGI [4]: > 10 µM | TGI [5]: > 10 µM | TGI [6]: > 10 µM | TGI [7]: > 10 µM | TGI [8]: > 10 µM | TGI [9]: > 10 µM | TGI [10]: > 10 µM | TGI [11]: > 10 µM | TGI [12]: > 10 µM | TGI [13]: > 10 µM | TGI [14]: > 10 µM | TGI [15]: > 10 µM | TGI [16]: > 10 µM | TGI [17]: > 10 µM | TGI [18]: > 10 µM | TGI [19]: > 10 µM | TGI [20]: > 10 µM | TGI [21]: > 10 µM | TGI [22]: > 10 µM | TGI [23]: > 10 µM | TGI [24]: > 10 µM | TGI [25]: > 10 µM | TGI [26]: > 10 µM | TGI [27]: > 10 µM | TGI [28]: > 10 µM | TGI [29]: > 10 µM | TGI [30]: > 10 µM | TGI [31]: > 10 µM | TGI [32]: > 10 µM | TGI [33]: > 10 µM | TGI [34]: > 10 µM | TGI [35]: > 10 µM | TGI [36]: > 10 µM | TGI [37]: > 10 µM | TGI [38]: > 10 µM | TGI [39]: > 10 µM | TGI [40]: > 10 µM | TGI [41]: > 10 µM | TGI [42]: > 10 µM | TGI [43]: > 10 µM | TGI [44]: > 10 µM | TGI [45]: > 10 µM | TGI [46]: > 10 µM | TGI [47]: > 10 µM | TGI [48]: > 10 µM | TGI [49]: > 10 µM | TGI [50]: > 10 µM | TGI [51]: > 10 µM | TGI [52]: > 10 µM | TGI [53]: > 10 µM | TGI [54]: > 10 µM | TGI [55]: > 10 µM | TGI [56]: > 10 µM

CC(C)CNP(=O)(NCC(C)C)Oc1ccc(CC(NC(=O)OCc2ccccc2)C(=O)OCc2ccccc2)cc1 (stereo not drawn)
TGI [1]: 28.9 µM | TGI [2]: 50.8 µM | TGI [3]: > 100 µM | TGI [4]: 30.6 µM | TGI [5]: 52.4 µM | TGI [6]: > 100 µM | TGI [7]: 32.8 µM | TGI [8]: 35.4 µM | TGI [9]: 24.3 µM | TGI [10]: 77.2 µM | TGI [11]: 30.7 µM | TGI [12]: 37.6 µM | TGI [13]: 89.6 µM | TGI [15]: 30.8 µM | TGI [57]: > 100 µM | TGI [16]: 85.8 µM | TGI [17]: 33.4 µM | TGI [18]: > 100 µM | TGI [19]: 59.4 µM | TGI [20]: 38.3 µM | TGI [21]: 32.5 µM | TGI [22]: 67.7 µM | TGI [23]: 34.9 µM | TGI [24]: 24.7 µM | TGI [25]: 34.9 µM | TGI [26]: 22.8 µM | TGI [27]: 36 µM | TGI [28]: 41.1 µM | TGI [29]: > 100 µM | TGI [30]: 32.3 µM | TGI [31]: 33.4 µM | TGI [58]: 30.5 µM | TGI [32]: > 100 µM | TGI [33]: 16 µM | TGI [34]: 36.5 µM | TGI [35]: > 100 µM | TGI [36]: 32.7 µM | TGI [37]: 30.8 µM | TGI [38]: 40 µM | TGI [39]: 36.2 µM | TGI [40]: 33 µM | TGI [41]: 98.4 µM | TGI [43]: 34.8 µM | TGI [44]: 30.5 µM | TGI [45]: 45.8 µM | TGI [46]: 29.2 µM | TGI [47]: 39.9 µM | TGI [48]: 57.8 µM | TGI [59]: 39.1 µM | TGI [49]: 29.2 µM | TGI [50]: 40.2 µM | TGI [51]: 33.5 µM | TGI [52]: > 100 µM | TGI [53]: 30.1 µM | TGI [54]: 59.1 µM | TGI [55]: 34.1 µM | TGI [56]: 39 µM
